Assay results as given in ChEMBL document CHEMBL3580562 (J Med Chem, 2015).

Legend:
[1] = Drug uptake in CD-IGS rat at 1 mg/kg, po administered for 3 days measured at 24 hrs post last dose; format: ADME, organism-based; conditions: in vivo, read-out: Drug uptake
[2] = AUC in mouse at 10 mg/kg, po; format: ADME, organism-based; conditions: in vivo
Mus musculus = experiment: AUC in mouse assessed as GW-7604 at 100 mg/kg, po; format: ADME, organism-based; conditions: in vivo
[3] = AUC in mouse at 100 mg/kg, po; format: ADME, organism-based; conditions: in vivo
[4] = Drug uptake in CD-IGS rat at 1 mg/kg, po administered for 3 days measured at 6 hrs post last dose; format: ADME, organism-based; conditions: in vivo, read-out: Drug uptake
[5] = Clearance in rat at 3 mg/kg, iv and 10 mg/kg, po; format: ADME, organism-based; conditions: in vivo
[6] = Clearance in dog at 3 mg/kg, iv and 10 mg/kg, po; format: ADME, organism-based, Canis lupus familiaris; conditions: in vivo
[7] = Clearance in cynomolgus monkey at 3 mg/kg, iv and 10 mg/kg, po; format: ADME, organism-based, Macaca fascicularis; conditions: in vivo
[8] = Volume of distribution at steady state in mouse at 3 mg/kg, iv and 10 mg/kg, po; format: ADME, organism-based; conditions: in vivo, read-out: Vdss
[9] = Volume of distribution at steady state in rat at 3 mg/kg, iv and 10 mg/kg, po; format: ADME, organism-based; conditions: in vivo, read-out: Vdss
[10] = Volume of distribution at steady state in dog at 3 mg/kg, iv and 10 mg/kg, po; format: ADME, organism-based, Canis lupus familiaris; conditions: in vivo, read-out: Vdss
[11] = Volume of distribution at steady state in cynomolgus monkey at 3 mg/kg, iv and 10 mg/kg, po; format: ADME, organism-based, Macaca fascicularis; conditions: in vivo, read-out: Vdss
[12] = Half life in mouse at 3 mg/kg, iv; format: ADME, organism-based; conditions: in vivo
[13] = Half life in rat at 3 mg/kg, iv; format: ADME, organism-based; conditions: in vivo
[14] = Half life in dog at 3 mg/kg, iv; format: ADME, organism-based, Canis lupus familiaris; conditions: in vivo
[15] = Half life in cynomolgus monkey at 3 mg/kg, iv; format: ADME, organism-based, Macaca fascicularis; conditions: in vivo
[16] = Cmax in mouse at 10 mg/kg, po; format: ADME, organism-based; design: dose 10 mg/kg, route oral; conditions: in vivo
[17] = Cmax in rat at 10 mg/kg, po; format: ADME, organism-based; design: dose 10 mg/kg, route oral; conditions: in vivo
[18] = Cmax in dog at 10 mg/kg, po; format: ADME, organism-based, Canis lupus familiaris; design: dose 10 mg/kg, route oral; conditions: in vivo
[19] = Cmax in cynomolgus monkey at 10 mg/kg, po; format: ADME, organism-based, Macaca fascicularis; design: dose 10 mg/kg, route oral; conditions: in vivo
[20] = AUC in rat at 10 mg/kg, po; format: ADME, organism-based; conditions: in vivo
[21] = AUC in 17-beta estradiol pellets supplemented nu/nu mouse xenografted with tamoxifen-resistant human MCF7 cells at 100 mg/kg/day, po administered for 4 weeks measured on day 28; format: ADME, organism-based; conditions: in vivo
[22] = AUC in 17-beta estradiol pellets supplemented nu/nu mouse xenografted with tamoxifen-resistant human MCF7 cells at 30 mg/kg/day, po administered for 4 weeks measured on day 28; format: ADME, organism-based; conditions: in vivo
[23] = AUC in dog at 10 mg/kg, po; format: ADME, organism-based, Canis lupus familiaris; conditions: in vivo
[24] = AUC in cynomolgus monkey at 10 mg/kg, po; format: ADME, organism-based, Macaca fascicularis; conditions: in vivo
[25] = Oral bioavailability in rat at 10 mg/kg; format: ADME, organism-based; conditions: in vivo
[26] = Oral bioavailability in dog at 10 mg/kg; format: ADME, organism-based, Canis lupus familiaris; conditions: in vivo
[27] = Oral bioavailability in cynomolgus monkey at 10 mg/kg; format: ADME, organism-based, Macaca fascicularis; conditions: in vivo
[28] = Drug metabolism in microsomes (unknown origin) assessed as formation of (2S,3S,4R,5R,6S)-6-((E)-3-(4-((E)-2-(2-chloro-4-fluorophenyl)-1-(1H-indazol-5-yl)but-1-enyl)phenyl)acryloyloxy)-3,4,5-trihydroxytetrahydro-2H-pyran-2-carboxylic acid; format: ADME, Microsome
in vivo = conditions: mouse, iv, 3 mg/kg
[29] = AUC in 17-beta estradiol pellets supplemented nu/nu mouse xenografted with tamoxifen-resistant human MCF7 cells at 200 mg/kg, sc administered 3 times per week for 4 weeks measured on day 28; format: ADME, organism-based; conditions: in vivo
[30] = Drug level in microsomes (unknown origin) treated with (E)-3-(4-((E)-2-(2-chloro-4-fluorophenyl)-1-(1H-indazol-5-yl)but-1-enyl)phenyl)acrylic acid; format: ADME, Microsome
[31] = Half life in phosphate buffer at pH 7.4 at 37 degC; format: physicochemical

Structure (SMILES): CC/C(=C(/c1ccc(/C=C/C(=O)O)cc1)c1ccc2[nH]ncc2c1)c1ccncc1Cl
- concentration at 24 h [1]: 0.5 nM
- AUC [2]: 110 ng·h/mL

Structure (SMILES): CC/C(=C(\c1ccc(O)cc1)c1ccc(/C=C/C(=O)O)cc1)c1ccccc1
- AUC (Mus musculus): 13000 ng·h/mL

Structure (SMILES): CC/C(=C(/c1ccc(/C=C/C(=O)O)cc1)c1ccc2[nH]ncc2c1)c1ccccc1
- AUC [3]: 240000 ng·h/mL
- concentration at 24 h [1]: 3.8 nM
- AUC [2]: 5800 ng·h/mL

Structure (SMILES): CC/C(=C(/c1ccc(/C=C/C(=O)O)cc1)c1ccc2[nH]ncc2c1)c1ccc(C#N)cc1C
- concentration at 6 h [4]: 14 nM
- AUC [2]: 4300 ng·h/mL

Structure (SMILES): CC/C(=C(/c1ccc(/C=C/C(=O)O)cc1)c1cccc2[nH]ncc12)c1ccccc1
- concentration at 24 h [1]: 0.1 nM
- AUC [2]: 2800 ng·h/mL

Structure (SMILES): CC/C(=C(/c1ccc(/C=C/C(=O)O)cc1)c1ccc2[nH]ncc2c1)c1cscc1C
- concentration at 24 h [1]: 10 nM
- AUC [2]: 3800 ng·h/mL

Structure (SMILES): CC/C(=C(/c1ccc(/C=C/C(=O)O)cc1)c1ccc2[nH]ncc2c1)c1ccncc1C
- concentration at 24 h [1]: 7.6 nM
- AUC [2]: 81 ng·h/mL

Structure (SMILES): CC/C(=C(/c1ccc(/C=C/C(=O)O)cc1)c1ccc2[nH]ncc2c1)c1ccc(F)cc1Cl [BRILANESTRANT]
- concentration at 24 h [1]: 5.2 nM
- AUC [2]: 8800 ng·h/mL
- clearance [5]: 14 mL/min/kg
- clearance [6]: 1.6 mL/min/kg
- clearance [7]: 7 mL/min/kg
- Vd [8]: 1.2 L/kg
- Vd [9]: 1.9 L/kg
- Vd [10]: 0.2 L/kg
- Vd [11]: 0.5 L/kg
- half-life [12]: 4.2 h
- half-life [13]: 3.9 h
- half-life [14]: 11 h
- half-life [15]: 13 h
- Cmax [16]: 4400 ng/mL
- Cmax [17]: 1800 ng/mL
- Cmax [18]: 20000 ng/mL
- Cmax [19]: 6100 ng/mL
- AUC [20]: 5800 ng·h/mL
- AUC at 672 h [21]: 45000 ng·h/mL
- AUC at 672 h [22]: 21000 ng·h/mL
- AUC [23]: 69000 ng·h/mL
- AUC [24]: 10000 ng·h/mL
- bioavailability [25]: 49%
- bioavailability [26]: 61%
- bioavailability [27]: 42%
- Drug metabolism [28]: metabolite_detected
- clearance (in vivo): 11 mL/min/kg

Structure (SMILES): CC/C(=C(/c1ccc(/C=C/C(=O)O)cc1)c1ccc2[nH]ccc2c1)c1ccccc1
- AUC [2]: 9400 ng·h/mL

Structure (SMILES): CC/C(=C(/c1ccc(/C=C/C(=O)O)cc1)c1ccc2[nH]ncc2c1)c1ccc(C#N)cc1Cl
- concentration at 6 h [4]: 10 nM
- AUC [2]: 2900 ng·h/mL

Structure (SMILES): CC/C(=C(/c1ccc(/C=C/C(=O)O)cc1)c1ccc2[nH]ncc2c1)c1ccccc1Cl
- concentration at 24 h [1]: 3.7 nM
- AUC [2]: 15000 ng·h/mL

Structure (SMILES): C[C@]12CC[C@@H]3c4ccc(O)cc4C[C@@H](CCCCCCCCC[S+]([O-])CCCC(F)(F)C(F)(F)F)[C@H]3[C@@H]1CC[C@@H]2O (stereo partly specified) [FULVESTRANT]
- AUC at 672 h [29]: 11000 ng·h/mL

Structure (SMILES): CC/C(=C(/c1ccc(/C=C/C(=O)O)cc1)c1ccc2[nH]ncc2c1)c1ccccc1C#N
- AUC [2]: 200 ng·h/mL

Structure (SMILES): COc1ccc(-c2sc3cc(O)ccc3c2Oc2ccc(OCCN3CCCCC3)cc2)cc1 [ARZOXIFENE]
- AUC at 672 h [21]: 50000 ng·h/mL

Structure (SMILES): CC/C(=C(/c1ccc(/C=C/C(=O)O[C@@H]2O[C@H](C(=O)O)[C@@H](O)[C@H](O)[C@H]2O)cc1)c1ccc2[nH]ncc2c1)c1ccc(F)cc1Cl
- Drug metabolism [30]: metabolite_detected
- half-life [31]: 8.1 h

Structure (SMILES): CC/C(=C(/c1ccc(/C=C/C(=O)O)cc1)c1ccc2[nH]c(=O)oc2c1)c1ccccc1
- concentration at 24 h [1]: 0.2 nM
- AUC [2]: 3000 ng·h/mL

Structure (SMILES): Cc1c(-c2ccc(O)cc2)n(Cc2ccc(OCCN3CCCCC3)cc2)c2ccc(O)cc12 [PIPENDOXIFENE]
- AUC at 672 h [21]: 7000 ng·h/mL

Structure (SMILES): CC/C(=C(/c1ccc(/C=C/C(=O)O)cc1)c1ccc2[nH]nnc2c1)c1ccccc1
- AUC [2]: 2300 ng·h/mL

Structure (SMILES): CC/C(=C(\c1ccccc1)c1ccc(/C=C/C(=O)O)cc1)c1ccccc1
- AUC [3]: 137000 ng·h/mL

Structure (SMILES): O=C(Cc1ccccc1Nc1c(Cl)cccc1Cl)O[C@@H]1O[C@H](C(=O)O)[C@@H](O)[C@H](O)[C@H]1O
- half-life [31]: 0.9 h

Structure (SMILES): CC/C(=C(/c1ccc(/C=C/C(=O)O)cc1)c1ccc2[nH]ncc2c1)c1ccccc1C
- concentration at 24 h [1]: 1.7 nM
- AUC [2]: 7200 ng·h/mL

Structure (SMILES): CC/C(=C(/c1ccc(/C=C/C(=O)O)cc1)c1ccc2[nH]ncc2c1)c1cccc(Cl)c1
- concentration at 24 h [1]: 11 nM
- AUC [2]: 11000 ng·h/mL
